This is an account of results in patent US8916711B2, “Imidazothiazole-chalcone derivatives as potential anticancer agents and process for the preparation thereof” (Council of Scientific and Industrial Research, priority 2009, dated 2014).

The subject of one data set is MCF7. In words: NCI in vitro cytotoxicity (SRB, 48 h), Breast panel. It counts as cell-based. The settings on record: Homo sapiens, MCF7; MCF-7; Table 4; read-out: Comparative efficacy. As for the experimental part:
(§1) The imidazothiazole-chalcone hybrids 7a, 7e, 7f, 8f and 19e have been tested against sixty human tumour cell lines derived from nine cancer types (leukemia, non-small cell lung cancer, colon cancer, CNS cancer, melanoma, ovarian cancer, renal cancer, prostate cancer and breast cancer) as per NCI protocol. For each compound, dose response curves for individual cell lines have been measured at a minimum of five concentrations at 10 fold dilutions. A protocol of 48 h continuous drug exposure has been used, and a sulforhodamine B (SRB) protein assay was used to estimate cell viability or growth. The concentration for 50% cell growth inhibition (GI50), total cell growth inhibition (TGI, 0% growth) and 50% cell death (LC50, […]) compared with the control has been calculated (Table-1).

A further data set has as its system MDA-MB-231/ATCC. Described as above. It counts as cell-based. The conditions noted are these: Homo sapiens, Table 4, read-out: Comparative efficacy. As for the experimental part:
as §1

The test system of another data set is SR. Put plainly: NCI in vitro cytotoxicity (SRB, 48 h), Leukemia panel. It counts as cell-based. The settings on record: Homo sapiens. As for the experimental part: as §1

Consider `C1=Nc2c3c(ccc2=N1)=NCS3` [C, imidazobenzothiazole, reference compound], for which the IC50 in the data set on MCF7 is 32.5 µM; in the data set on MDA-MB-231/ATCC, 43.2 µM.

One may read the melting point as the temperature, or range, at which the solid turns liquid. Take `COc1ccc(C(=O)/C=C/c2c(-c3ccc(F)cc3)nc3sccn23)cc1OC` [Compound 8e, (E)-1-(3,4-dimethoxyphenyl)-3-(6-(4-fluorophenyl)imidazo[2,1-b]thiazol-5-yl)prop-2-en-1-one]: the melting point lay in the range of 221 to 223 °C.

In turn, `Cc1ccc(C(=O)/C=C/c2c(-c3ccc(F)cc3)nc3sccn23)cc1C` [Compound 9e, (E)-1-(3,4-dimethylphenyl)-3-(6-(4-fluorophenyl)imidazo[2,1-b]thiazol-5-yl)prop-2-en-1-one] registered a melting point of 210 to 213 °C.

`COc1ccc(-c2nc3sccn3c2/C=C/C(=O)c2ccc3c(c2)OCO3)cc1` [Compound 11a, (E)-1-(benzo[d][1,3]dioxol-5-yl)-3-(6-(4-methoxyphenyl)imidazo[2,1-b]thiazol-5-yl)prop-2-en-1-one] gave a melting point of 189 to 191 °C.

`O=C(/C=C/c1c(-c2ccc(F)cc2)nc2sccn12)c1ccc2ccccc2c1` [Compound 12e, (E)-3-(6-(4-fluorophenyl)imidazo[2,1-b]thiazol-5-yl)-1-(naphthalen-2-yl)prop-2-en-1-one]: the melting point was in the range of 216 to 218 °C.

Consider `O=C(/C=C/c1c(-c2ccc(F)cc2)nc2sccn12)c1ccc(-c2ccccc2)cc1` [Compound 13e, (E)-1-(biphenyl-4-yl)-3-(6-(4-fluorophenyl)imidazo[2,1-b]thiazol-5-yl)prop-2-en-1-one], for which the melting point was 194 to 196 °C.

In the case of `COc1ccc(-c2nc3sccn3c2/C=C/C(=O)c2cccs2)cc1` [Compound 16a, (E)-3-(6-(4-methoxyphenyl)imidazo[2,1-b]thiazol-5-yl)-1-(thiophen-2-yl)prop-2-en-1-one], the melting point is 169 to 172 °C.

In the case of `COc1ccc(-c2nc3sccn3c2/C=C/C(=O)c2ccc[nH]2)cc1` [Compound 17a, (E)-3-(6-(4-methoxyphenyl)imidazo[2,1-b]thiazol-5-yl)-1-(1H-pyrrol-2-yl)prop-2-en-1-one], the melting point is 177 to 179 °C.

A word on the GI50: it is the concentration that inhibits growth by half. Low readings indicate more potent growth inhibition, high ones less potent growth inhibition. `COc1cc(C(=O)/C=C/c2c(C(F)(F)F)nc3sc(C)cn23)cc(OC)c1OC` [Compound 19f, (E)-3-(2-methyl-6-(trifluoromethyl)imidazo[2,1-b]thiazol-5-yl)-1-(3,4,5-trimethoxyphenyl)prop-2-en-1-one] came in with a GI50 in the data set on SR of 0.8 µM.
